Tests used:
MDA-MB-231 = assay: MTS cell proliferation test, MDA-MB-231; details: Homo sapiens, MDA-MB-231, 72 h, read-out: MDA231 IC50 (Mean ± SD);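 further: cells settled 24 h before compound addition, MTS absorbance at 490 nm, survival as percent of untreated cells after blank subtraction, IC50 fitted from survival versus concentration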
Procedure: (§1) The disclosed compounds and their pharmaceutically accepted salts are assayed for their anti-cancer activities by the following method. • MTS Cell Proliferation Test 1. Materials 1.1. […] Cell Lines
(§2) Two cell lines were used, both HCT116 and MDA-MB-231 were purchased from USATCC.
(§3) MTS reagent powder was purchased from Promega. Cat #G1111; PMS from Sigma, Cat #P8625; cell culture medium RPMI-1640, Cat #10040562R; DMEM, Cat #0013CVR; 100× sodium pyruvate solution Cat #136007; 100× Penicillin Streptomycin Solution, Cat ⊇15140122; 100× Penicillin Streptomycin Solution, Cat #15140122; 0.25% Trypsin (Parenzyme), Cat #25200-072; and fetal bovine serum, Cat #16000-044 were all purchased from Life Technologies.
(§4) • Thermo incubator (Format 371); • Heat force Biosafety Cabinet (HF sage 1500); • BioTek Microplate Reader (Synergy 2). 2. […] 2.3 Procedure of MTS Methods:
(§5) Cells at logarithmic phase were harvested, then digested with 0.25% trypsin, and re-suspense in complete growth medium. 150 uL/well of HCT-116 and MDA-MB-231 were dispensed into 96 well culture plates with 2.5×10^3 cell/well. The plates were pre-incubated in a humidified CO2 incubator at 37° C., 5% CO2) for 24 hours. 50 uL of various concentration of test compounds and reference compound were added. A negative control (only cells and culture medium without compound) and blank control (only culture medium without cells) were set at the same time. The plates were incubated for 72 hr in the incubator. The MTS/PMS solution was prepared and added into 96 well plates according to the test instruction by Promega Corporation. The plates were incubated again for some time, then the absorbance at 490 nm were measured using Biotek Instruments, Inc microplate reader and the cell survival rates calculated. Cell Survival Rate(%)=(At−Ab)/(Ac−Ab)×100% where, • At=Absorbance value of test compound • Ab=Absorbance value of blank • Ac=Absorbance value of control 3. Results

HCT116 = assay: MTS cell proliferation test, HCT116; details: Homo sapiens, HCT-116, 72 h, read-out: HCT116 IC50 (Mean ± SD);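 further: absorbance at 490 nm after MTS/PMS addition, survival relative to untreated cells (100%) after blank subtraction, IC50 from the concentration–survival curve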
Procedure: as §1, §2, §3, §4, §5

| Compound | IC50 (MDA-MB-231) | IC50 (HCT116) |
| --- | --- | --- |
| Cc1cccc(CN2CCC3=C(C2)C(=O)N(Cc2ccccc2Br)C2=NCCN23)c1 [Compound I-33, 4-(2-bromobenzyl)-7-(3-methylbenzyl)-1,2,6,7,8,9-hexahydroimidazo[1,2-a]pyrido[3,4-e]pyrimidin-5(4H)-one] | 860 ± 136 nM | 720 ± 1 nM |
| O=C1C2=C(CCN(Cc3cccc(Cl)c3)C2)N2CCN=C2N1Cc1ccccc1C(F)(F)F [Compound I-35, 7-(3-chlorobenzyl)-4-(2-(trifluoromethyl)benzyl)-1,2,6,7,8,9-hexahydroimidazo[1,2-a]pyrido[3,4-e]pyrimidin-5(4H)-one] | 4210 ± 634 nM | 6210 ± 77 nM |
| O=C1C2=C(CCN(Cc3cccc(Cl)c3)C2)N2CCN=C2N1Cc1ccccc1Cl [Compound I-36, 4-(2-chlorobenzyl)-7-(3-chlorobenzyl)-1,2,6,7,8,9-hexahydroimidazo[1,2-a]pyrido[3,4-e]pyrimidin-5(4H)-one] | 740 ± 1 nM | 720 nM |
| O=C1C2=C(CCN(Cc3cccc(Cl)c3)C2)N2CCN=C2N1Cc1ccccc1Br [Compound I-37, 4-(2-bromobenzyl)-7-(3-chlorobenzyl)-1,2,6,7,8,9-hexahydroimidazo[1,2-a]pyrido[3,4-e]pyrimidin-5(4H)-one] | 2330 ± 95 nM | 2310 ± 33 nM |
| O=C1C2=C(CCN(Cc3ccccc3)C2)N2CCN=C2N1Cc1ccc(Cl)cc1Cl [Compound I-41, 7-benzyl-4-(2,4-dichlorobenzyl)-1,2,6,7,8,9-hexahydroimidazo[1,2-a]pyrido[3,4-e]pyrimidin-5(4H)-one] | 2010 ± 10 nM | 1730 ± 250 nM |
| O=C1C2=C(CCN(Cc3ccccc3)C2)N2CCN=C2N1Cc1ccc(Cl)c(C(F)(F)F)c1 [Compound I-42, 7-benzyl-4-(4-chloro-3-(trifluoromethyl)benzyl)-1,2,6,7,8,9-hexahydroimidazo[1,2-a]pyrido[3,4-e]pyrimidin-5(4H)-one] | 1070 ± 10 nM | 730 nM |
| O=C1C2=C(CCN(Cc3ccccc3)C2)N2CCN=C2N1Cc1ccc(Cl)cc1C(F)(F)F [Compound I-43, 7-benzyl-4-(4-chloro-2-(trifluoromethyl)benzyl)-1,2,6,7,8,9-hexahydroimidazo[1,2-a]pyrido[3,4-e]pyrimidin-5(4H)-one] | 2850 ± 770 nM | 4290 ± 210 nM |
| O=C1C2=C(CCN(Cc3cccc(F)c3)C2)N2CCN=C2N1Cc1ccccc1F [Compound I-49, 4-(2-fluorobenzyl)-7-(3-fluorobenzyl)-1,2,6,7,8,9-hexahydroimidazo[1,2-a]pyrido[3,4-e]pyrimidin-5(4H)-one] | 930 ± 98 nM | 580 ± 43 nM |

The remaining compounds from weak to strong by IC50 (MDA-MB-231), led by results:

| IC50 (MDA-MB-231) | IC50 (HCT116) | Compound |
| --- | --- | --- |
| 730 ± 2 nM | 730 ± 1 nM | Cc1cccc(CN2CCC3=C(C2)C(=O)N(Cc2ccccc2C)C2=NCCN23)c1 [Compound I-34, 4-(2-methylbenzyl)-7-(3-methylbenzyl)-1,2,6,7,8,9-hexahydroimidazo[1,2-a]pyrido[3,4-e]pyrimidin-5(4H)-one] |
| 400 ± 30 nM | 240 ± 20 nM | O=C1C2=C(CCN(Cc3ccccc3)C2)N2CCN=C2N1Cc1cccc(C(F)(F)F)c1 [Compound I-38, 7-benzyl-4-(3-(trifluoromethyl)benzyl)-1,2,6,7,8,9-hexahydroimidazo[1,2-a]pyrido[3,4-e]pyrimidin-5(4H)-one] |
| 120 ± 10 nM | 80 nM | O=C1C2=C(CCN(Cc3ccccc3)C2)N2CCN=C2N1Cc1ccc(Cl)c(Cl)c1 [Compound I-40, 7-benzyl-4-(3,4-dichlorobenzyl)-1,2,6,7,8,9-hexahydroimidazo[1,2-a]pyrido[3,4-e]pyrimidin-5(4H)-one] |
| 50 nM | 30 nM | O=C1C2=C(CCN(Cc3ccccc3)C2)N2CCN=C2N1Cc1ccc(C(F)(F)F)cc1 [Compound I-39, 7-benzyl-4-(4-(trifluoromethyl)benzyl)-1,2,6,7,8,9-hexahydroimidazo[1,2-a]pyrido[3,4-e]pyrimidin-5(4H)-one] |

From patent US10526332B2, “Imidazo-pyrimidone compounds, and preparation method and application thereof” (Nanjing Gator Meditech Company, Ltd., priority 2015, dated 2020)
